Test results: US9211310B2, “Use of a Chinese medicine composition in preparing medicaments for treating secondary prevention of myocardial infarction” (TASLY PHARMACEUTICAL GROUP CO., LTD, priority 2010, dated 2015)

System: patients after acute myocardial infarction
Assay: Life quality, Seattle Angina Questionnaire (SAQ), same clinical trial
Assay type: in vivo, human
Details: Follow-up
Description: 3508 patients who were in accordance with the diagnostic standards of AMI for 28 days to 2 years and differentiated as Qi deficiency and blood stagnation syndrome by TCM were studied. 0.5 g Chinese medicine composition prepared by the method of EXAMPLE 1 (Coded as QSYQ) was administrated half an hour after meal, 3 times per day.
There were 19 questions in the Seattle angina questionnaire (SAQ), including 5 parts: physical limitation (PL), anginal stability (AS), anginal frequency (AF), treatment satisfaction (TS) and disease perception (DP). After being given necessary explanation by doctors, the questions were answered independently by patients.
They included the overall survival time, angina pectoris score, TCM symptom score and life quality score, where angina pectoris score, TCM symptom score and life quality score were evaluated at randomization, in 1st, 3rd, 6th, 9th, 12th month after treatment and 18th month after follow-up.
All evaluation results of SAQ were described during the period of observation, and Wilcoxon rank sum test was used for inter-group comparison.
The evaluation results in the SAQ were depicted in different observations, and inter-group comparison was tested by Wilcoxon Rank-sum test.

[1] = FAS, second line headed Not limited (r60)

## CC(=O)Oc1ccccc1C(=O)O [Control group, aspirine]
FAS
  SAQ 7th question, Mostly satisfied: number of patients: 908
  SAQ 7th question, Partly satisfied: % of patients: (6.68%)
  SAQ 7th question, Partly satisfied: number of patients: 97
  SAQ Question 1-1 Mildly limited, number of patients: 6
  SAQ Question 1-1 Mildly limited, percent of patients: (0.42%)
  SAQ Question 1-1 Moderately limited, number of patients: 1
  SAQ Question 1-1 Moderately limited, percent of patients: (0.07%)
  SAQ Question 1-1 Not limited, number of patients: 1386
  SAQ Question 1-1 Not limited, percent of patients: (95.98%)
  SAQ Question 1-1 Other reasons, number of patients: 5
  SAQ Question 1-1 Other reasons, percent of patients: (0.35%)
  SAQ Question 1-1 Severely limited, number of patients: 1
  SAQ Question 1-1 Severely limited, percent of patients: (0.07%)
  SAQ Question 1-1 Slightly limited, number of patients: 45
  SAQ Question 1-1 Slightly limited, percent of patients: (3.12%)
  SAQ Question 1-2 Mildly limited, number of patients: 8
  SAQ Question 1-2 Mildly limited, percent of patients: (0.55%)
  SAQ Question 1-2 Moderately limited, number of patients: 0
  SAQ Question 1-2 Moderately limited, percent of patients: (0.00%)
  SAQ Question 1-2 Not limited, number of patients: 1370
  SAQ Question 1-2 Not limited, percent of patients: (94.88%)
  SAQ Question 1-2 Severely limited, number of patients: 2
  SAQ Question 1-2 Severely limited, percent of patients: (0.14%)
  SAQ Question 1-2 Slightly limited, number of patients: 57
  SAQ Question 1-2 Slightly limited, percent of patients: (3.95%)
  SAQ Question 1-6: Mildly limited, patients (%): (11.47%)
  SAQ Question 1-6: Moderately limited, patients (%): (9.24%)
  SAQ Question 1-6: Not limited, patients (%): (42.11%)
  SAQ Question 1-6: Other reasons, patients (%): (0.83%)
  SAQ Question 1-6: Severely limited, patients (%): (2.22%)
  SAQ Question 1-6: Slightly limited, patients (%): (34.12%)
  SAQ Question 1-7: Mildly limited, patients (%): (22.01%)
  SAQ Question 1-7: Moderately limited, patients (%): (6.75%)
  SAQ Question 1-7: Not limited, patients (%): (22.08%)
  SAQ Question 1-7: Other reasons, patients (%): (2.53%)
  SAQ Question 1-7: Severely limited, patients (%): (11.67%)
  SAQ Question 1-7: Slightly limited, patients (%): (34.95%)
  SAQ Question 1-8: Mildly limited, patients (%): (25.02%)
  SAQ Question 1-8: Moderately limited, patients (%): (11.91%)
  SAQ Question 1-8: Not limited, patients (%): (15.02%)
  SAQ Question 1-8: Other reasons, patients (%): (3.19%)
  SAQ Question 1-8: Severely limited, patients (%): (14.74%)
  SAQ Question 1-8: Slightly limited, patients (%): (30.12%)
  SAQ 2nd question: Clearly increased, % of cases: (0.21%)
  SAQ 2nd question: Clearly increased, cases: 3
  SAQ 2nd question: Clearly reduced, % of cases: (27.82%)
  SAQ 2nd question: Clearly reduced, cases: 402
  SAQ 2nd question: Same, % of cases: (39.24%)
  SAQ 2nd question: Same, cases: 567
  SAQ 2nd question: Slightly increased, % of cases: (7.40%)
  SAQ 2nd question: Slightly increased, cases: 107
  SAQ 2nd question: Slightly reduced, % of cases: (25.33%)
  SAQ 2nd question: Slightly reduced, cases: 366
  SAQ 3rd question: 1-2 times per week, % of cases: (25.33%)
  SAQ 3rd question: 1-2 times per week, cases: 366
  SAQ 3rd question: 1-3 times per day, % of cases: (7.40%)
  SAQ 3rd question: 1-3 times per day, cases: 107
  SAQ 3rd question: <1 time per week, % of cases: (27.82%)
  SAQ 3rd question: <1 time per week, cases: 402
  SAQ 3rd question: No onset, % of cases: (0.00%)
  SAQ 3rd question: No onset, cases: 0
  SAQ 3rd question: ≧3 times per week, % of cases: (39.24%)
  SAQ 3rd question: ≧3 times per week, cases: 567
  SAQ 3rd question: ≧4 times per day, % of cases: (0.21%)
  SAQ 3rd question: ≧4 times per day, cases: 3
  SAQ Question 1-3: Mildly limited, number of patients: 30
  SAQ Question 1-3: Mildly limited, percent of patients: (2.08%)
  SAQ Question 1-3: Moderately limited, number of patients: 6
  SAQ Question 1-3: Moderately limited, percent of patients: (0.42%)
  SAQ Question 1-3: Not limited, number of patients: 1206
  SAQ Question 1-3: Not limited, percent of patients: (83.58%)
  SAQ Question 1-3: Other reasons, number of patients: 9
  SAQ Question 1-3: Other reasons, percent of patients: (0.62%)
  SAQ Question 1-3: Severely limited, number of patients: 2
  SAQ Question 1-3: Severely limited, percent of patients: (0.14%)
  SAQ Question 1-3: Slightly limited, number of patients: 190
  SAQ Question 1-3: Slightly limited, percent of patients: (13.17%)
  SAQ Question 1-4: Mildly limited, number of patients: 177
  SAQ Question 1-4: Mildly limited, percent of patients: (12.28%)
  SAQ Question 1-4: Moderately limited, number of patients: 38
  SAQ Question 1-4: Moderately limited, percent of patients: (2.64%)
  SAQ Question 1-4: Not limited, number of patients: 775
  SAQ Question 1-4: Not limited, percent of patients: (53.78%)
  SAQ Question 1-4: Other reasons, number of patients: 10
  SAQ Question 1-4: Other reasons, percent of patients: (0.69%)
  SAQ Question 1-4: Severely limited, number of patients: 5
  SAQ Question 1-4: Severely limited, percent of patients: (0.35%)
  SAQ Question 1-4: Slightly limited, number of patients: 436
  SAQ Question 1-4: Slightly limited, percent of patients: (30.26%)
  SAQ Question 1-5: Mildly limited, number of patients: 189
  SAQ Question 1-5: Mildly limited, percent of patients: (13.12%)
  SAQ Question 1-5: Moderately limited, number of patients: 57
  SAQ Question 1-5: Moderately limited, percent of patients: (3.96%)
  SAQ Question 1-5: Not limited, number of patients: 783
  SAQ Question 1-5: Not limited, percent of patients: (54.34%)
  SAQ Question 1-5: Other reasons, number of patients: 8
  SAQ Question 1-5: Other reasons, percent of patients: (0.56%)
  SAQ Question 1-5: Severely limited, number of patients: 9
  SAQ Question 1-5: Severely limited, percent of patients: (0.62%)
  SAQ Question 1-5: Slightly limited, number of patients: 395
  SAQ Question 1-5: Slightly limited, percent of patients: (27.41%)
  SAQ Question 1-9: Mildly limited, % of cases: (20.40%)
  SAQ Question 1-9: Mildly limited, cases: 285
  SAQ Question 1-9: Moderately limited, % of cases: (21.19%)
  SAQ Question 1-9: Moderately limited, cases: 296
  SAQ Question 1-9: Not limited, % of cases: (6.08%)
  SAQ Question 1-9: Not limited, cases: 85
  SAQ Question 1-9: Other reasons, % of cases: (4.65%)
  SAQ Question 1-9: Other reasons, cases: 65
  SAQ Question 1-9: Severely-limited, % of cases: (27.13%)
  SAQ Question 1-9: Severely-limited, cases: 379
  SAQ Question 1-9: Slightly limited, % of cases: (20.54%)
  SAQ Question 1-9: Slightly limited, cases: 287
[1]
  SAQ Question 1-2 Not limited, number of patients: 7
  SAQ Question 1-2 Not limited, percent of patients: (0.48%)
PP
  SAQ 2nd question: Clearly increased, % of cases: (0.21%)
  SAQ 2nd question: Clearly increased, cases: 3
  SAQ 2nd question: Clearly reduced, % of cases: (27.66%)
  SAQ 2nd question: Clearly reduced, cases: 390
  SAQ 2nd question: Same, % of cases: (39.15%)
  SAQ 2nd question: Same, cases: 552
  SAQ 2nd question: Slightly increased, % of cases: (7.38%)
  SAQ 2nd question: Slightly increased, cases: 104
  SAQ 2nd question: Slightly reduced, % of cases: (25.60%)
  SAQ 2nd question: Slightly reduced, cases: 361
  SAQ 3rd question: 1-2 times per week, % of cases: (25.60%)
  SAQ 3rd question: 1-2 times per week, cases: 361
  SAQ 3rd question: 1-3 times per day, % of cases: (7.38%)
  SAQ 3rd question: 1-3 times per day, cases: 104
  SAQ 3rd question: <1 time per week, % of cases: (27.66%)
  SAQ 3rd question: <1 time per week, cases: 390
  SAQ 3rd question: No onset, % of cases: (0.00%)
  SAQ 3rd question: No onset, cases: 0
  SAQ 3rd question: ≧3 times per week, % of cases: (39.15%)
  SAQ 3rd question: ≧3 times per week, cases: 552
  SAQ 3rd question: ≧4 times per day, % of cases: (0.21%)
  SAQ 3rd question: ≧4 times per day, cases: 3
  SAQ Question 1-3: Mildly limited, number of patients: 30
  SAQ Question 1-3: Mildly limited, percent of patients: (2.13%)
  SAQ Question 1-3: Moderately limited, number of patients: 6
  SAQ Question 1-3: Moderately limited, percent of patients: (0.43%)
  SAQ Question 1-3: Not limited, number of patients: 1179
  SAQ Question 1-3: Not limited, percent of patients: (83.74%)
  SAQ Question 1-3: Other reasons, number of patients: 9
  SAQ Question 1-3: Other reasons, percent of patients: (0.64%)
  SAQ Question 1-3: Severely limited, number of patients: 2
  SAQ Question 1-3: Severely limited, percent of patients: (0.14%)
  SAQ Question 1-3: Slightly limited, number of patients: 182
  SAQ Question 1-3: Slightly limited, percent of patients: (12.93%)
  SAQ Question 1-4: Mildly limited, number of patients: 172
  SAQ Question 1-4: Mildly limited, percent of patients: (12.23%)
  SAQ Question 1-4: Moderately limited, number of patients: 37
  SAQ Question 1-4: Moderately limited, percent of patients: (2.63%)
  SAQ Question 1-4: Not limited, number of patients: 754
